Here are results for 10 compounds from PubChem BioAssay (NCI).

Among the test systems are KM12 colon; NCI-H460 lung; SF-295 CNS; RPMI-8226 leukemia; SNB-75 CNS; HOP-62 NSCLC; U251 CNS; OVCAR-5 ovarian; M14 melanoma; CAKI-1 renal.
Common to all, as to assay: NCI anticancer screen, dose series, 48 h

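Protocol summary: plate cells (96-well), add compound at 5 concentrations, incubate 48 h, interpolate endpoints linearly. GI50 is the concentration that inhibits growth by half. TGI marks complete inhibition of growth.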 Some results are limits rather than exact numbers.

Regarding `COc1ccc(/C=C/c2ccnc3ccccc23)c(OC)c1`, the TGI in the test with KM12 colon, in the test with NCI-H460 lung, in the test with SF-295 CNS, in the test on RPMI-8226 leukemia, in the test on SNB-75 CNS and in the test on HOP-62 NSCLC was above 10 µM throughout. For the same compound, the TGI in the test with U251 CNS, in the test on OVCAR-5 ovarian, in the test on M14 melanoma and in the test with CAKI-1 renal was above 10 µM throughout.
For the compound `Cc1ccn2c(c1)nc1nc3ccccc3nc12`, the TGI in the test with KM12 colon, in the test on NCI-H460 lung, in the test with SF-295 CNS, with RPMI-8226 leukemia, in the test with SNB-75 CNS and in the test with HOP-62 NSCLC was above 100 µM each time. The TGI in the test on U251 CNS, with OVCAR-5 ovarian, in the test with M14 melanoma and in the test on CAKI-1 renal was above 100 µM each time.
`CCC[CH2][Sn]1([CH2]CCC)[O]CC(CN2CCCC2)[O]1` (stereo not drawn): the GI50 is 16.1 µM with KM12 colon; 34.6 µM with NCI-H460 lung; 14.5 µM in the test on SF-295 CNS; 7.44 µM with RPMI-8226 leukemia; 14.4 µM in the test with SNB-75 CNS; 34.1 µM with HOP-62 NSCLC. Besides, the GI50 in the test with U251 CNS is 15.3 µM; with OVCAR-5 ovarian, 12.9 µM; in the test on M14 melanoma, 16.9 µM; in the test with CAKI-1 renal, 5.6 µM. In addition, the TGI with KM12 colon is 36.4 µM; in the test with NCI-H460 lung, above 100 µM; in the test on SF-295 CNS, 28.2 µM; in the test on RPMI-8226 leukemia, 44.1 µM; in the test on SNB-75 CNS, 40.9 µM; in the test with HOP-62 NSCLC, 73.8 µM. In addition, the TGI was 29.1 µM in the test with U251 CNS, 27.7 µM in the test with OVCAR-5 ovarian, 32.5 µM with M14 melanoma and 24.5 µM in the test on CAKI-1 renal.
Regarding `COc1cc2c3c(n(CCCNC(=O)OCC4c5ccccc5-c5ccccc54)c(=O)c2cc1OC)-c1cc2c(cc1/C3=C\CCNC(=O)OCC1c3ccccc3-c3ccccc31)OCO2`, the GI50 with KM12 colon was above 27.9 µM; in the test on NCI-H460 lung, above 50 µM; with SF-295 CNS it was above 23.6 µM; with RPMI-8226 leukemia it was above 26.3 µM; in the test on SNB-75 CNS, above 50 µM; in the test with U251 CNS it was above 17.8 µM. For the same compound, the GI50 in the test with OVCAR-5 ovarian is above 19.6 µM; with M14 melanoma it was above 25.3 µM; in the test with CAKI-1 renal, above 13.8 µM. For the same compound, the TGI in the test on KM12 colon was above 50 µM; with NCI-H460 lung, above 50 µM; in the test on SF-295 CNS it was above 50 µM; with RPMI-8226 leukemia, 48.9 µM; with SNB-75 CNS, above 50 µM; in the test on HOP-62 NSCLC, above 24.3 µM. The TGI was above 36.7 µM with U251 CNS, above 45 µM with OVCAR-5 ovarian, above 50 µM with M14 melanoma and above 46.1 µM with CAKI-1 renal.
Regarding `CC1(C)SCc2nc3ncccc3n21`, the TGI in the test on KM12 colon, with NCI-H460 lung, with SF-295 CNS, in the test with RPMI-8226 leukemia, in the test on SNB-75 CNS and with HOP-62 NSCLC was above 100 µM in each case. The TGI in the test with U251 CNS, in the test on OVCAR-5 ovarian, in the test on M14 melanoma and in the test with CAKI-1 renal was above 100 µM in each case.
In the case of `CCCCCCCC/C=C/CCCCCCCC(=O)OC[C@H]1O[C@@H](n2ccc(N)nc2=O)C(F)(F)[C@@H]1O`, the GI50 was above 100 µM in the test on KM12 colon; below 0.0212 µM in the test on NCI-H460 lung; 0.0242 µM in the test on SF-295 CNS; 0.128 µM with RPMI-8226 leukemia; 0.36 µM with SNB-75 CNS; below 0.0209 µM with HOP-62 NSCLC. Moreover, the GI50 was below 0.016 µM in the test on U251 CNS, 0.724 µM in the test with OVCAR-5 ovarian, below 0.0115 µM in the test on M14 melanoma and below 0.0135 µM in the test on CAKI-1 renal. Also, the TGI is above 100 µM in the test on KM12 colon; above 33.4 µM with NCI-H460 lung; 0.555 µM in the test on SF-295 CNS; above 100 µM in the test on RPMI-8226 leukemia; above 66.1 µM in the test with SNB-75 CNS; 25.3 µM with U251 CNS. Besides, the TGI was above 100 µM in the test with OVCAR-5 ovarian, 0.0273 µM in the test with M14 melanoma and 3.59 µM in the test on CAKI-1 renal.
As for `COc1cc2c(cc1OC)C(CC(=O)NN=C(C)C)NCC2` (stereo not drawn), the TGI in the test with KM12 colon, in the test with NCI-H460 lung, with SF-295 CNS, with RPMI-8226 leukemia, in the test with SNB-75 CNS and with HOP-62 NSCLC was above 100 µM each time. In addition, the TGI in the test with U251 CNS, with OVCAR-5 ovarian, in the test on M14 melanoma and in the test with CAKI-1 renal was above 100 µM throughout.
`NS(=O)(=O)c1ccc(NC2(C(=O)O)CCCC2)cc1`: the TGI in the test on KM12 colon, in the test on NCI-H460 lung, in the test on SF-295 CNS, in the test on RPMI-8226 leukemia, in the test on SNB-75 CNS and with HOP-62 NSCLC was above 100 µM in each case. Moreover, the TGI in the test on U251 CNS, in the test with OVCAR-5 ovarian, in the test with M14 melanoma and in the test on CAKI-1 renal was above 100 µM in each case.
Consider `C=C1C(=O)O[C@@H]2/C=C(\C)CC/C=C(/COC(C)=O)C[C@@H](OC(C)=O)[C@@H]12`, for which the TGI in the test with KM12 colon is 34.3 µM; in the test with NCI-H460 lung, 26 µM; in the test on SF-295 CNS, above 100 µM; with RPMI-8226 leukemia it was above 41.7 µM; in the test with SNB-75 CNS it was above 100 µM; in the test with HOP-62 NSCLC, 72.6 µM. For the same compound, the TGI with U251 CNS came to 36.7 µM; in the test on OVCAR-5 ovarian, 34.6 µM; with M14 melanoma, 27.1 µM; in the test with CAKI-1 renal, 20.2 µM.
On to `c1cc(CNC23CC4CC(CC(C4)C2)C3)cc(C[N+](Cc2cccc(CNC34CC5CC(CC(C5)C3)C4)c2)(Cc2cccc(CNC34CC5CC(CC(C5)C3)C4)c2)Cc2cccc(CNC34CC5CC(CC(C5)C3)C4)c2)c1` (stereo not drawn), for which the GI50 was 6.92 µM with KM12 colon; 4.97 µM in the test on NCI-H460 lung; 12.7 µM in the test on SF-295 CNS; 5.51 µM with RPMI-8226 leukemia; 9.78 µM with SNB-75 CNS; 11.1 µM in the test on HOP-62 NSCLC. Moreover, the GI50 in the test on U251 CNS is 4.68 µM; in the test with OVCAR-5 ovarian, 4.09 µM; in the test on M14 melanoma, 3.36 µM; in the test with CAKI-1 renal, 5.36 µM. Moreover, the TGI in the test with KM12 colon is 28.2 µM; in the test on NCI-H460 lung, 11.3 µM; in the test with SF-295 CNS it was 43.6 µM; in the test on RPMI-8226 leukemia, 16.7 µM; in the test with SNB-75 CNS it was 40.7 µM; in the test with HOP-62 NSCLC, 42.1 µM. For the same compound, the TGI in the test on U251 CNS is 11.3 µM; in the test on OVCAR-5 ovarian, 11.5 µM; in the test on M14 melanoma, 8.69 µM; with CAKI-1 renal, 19.6 µM.
